The values below come from PubChem BioAssay AID1189 (EPA DSSTox, 2008).

The source made the active and inactive calls.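 The calls were made as follows: active = a tumor-causing dose value with its tumor site reported for any sex and species group of a rodent or other animal cancer study; inconclusive = only studies judged inadequate by the national testing program; inactive = tested in at least one study, none positive.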

A short description of the series: DSSTox (CPDBAS) Carcinogenic Potency Database Summary SingleCellCall Results. Conditions: animal chronic carcinogenicity bioassays, CPDB summary call. The gist of the method: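 Categorical carcinogenicity call compiled from published chronic rodent and other animal cancer bioassays; based on the most positive result across experiments for each sex-species, assigned on minimal evidence for or against activity.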
`O=C(O)c1ccc([N+](=O)[O-])cc1`: the outcome was active.
Then `CCCCN(CCCCO)N=O`, with “active; inactive”.
Consider `ClC(Cl)(Cl)Cl`, for which the outcome is “active; inactive”.
On to `CC1CN1P(=O)(N1CC1C)N1CC1C` (stereo not given), for which the result was active.
`CC(Cl)CCl` (stereo not given): the outcome was “active; inactive”.
As for `CCC(C)c1cc([N+](=O)[O-])cc([N+](=O)[O-])c1O` (stereo not given), the result was inactive.
For `CC1SC(C)N(N=O)C(C)S1` (stereo not given), the result was active.
With `CC(C)(Oc1ccc(C2CC2(Cl)Cl)cc1)C(=O)O` (stereo not given), the outcome was active.
Then `O=S(=O)([O-])[O-].[O]=[V+2]`, with “inactive”; and `C1COCCO1`, with “active; inactive”.
For `C1CC2OC2CC1C1CO1` (stereo not given), the result was inactive.
Consider `OCCN(CCO)CCO`, for which the outcome is “active; inactive”.
The same measure for `Oc1c(Cl)cc(Cl)c(Cl)c1Cc1c(O)c(Cl)cc(Cl)c1Cl`: “inactive”; for `CC(=O)Nc1ccc(CC(=O)O)cc1`: “inactive”.
Take `O=C1c2cccc(O)c2C(=O)c2c(O)cccc21`: the outcome was active.
Then `CNC(=S)NC`, with “inactive”.
As for `OCC(O)CO`, the result was inactive.
Then `O=NN1CCC[C@H]1C(=O)O`, with “inactive”; and `CC(C)CCC[C@@H](C)[C@H]1CC[C@H]2[C@@H]3CC=C4C[C@@H](OC(=O)Cc5ccc(N(CCCl)CCCl)cc5)CC[C@]4(C)[C@H]3CC[C@]12C`, with “active”.
The same measure for `CCN(CC)c1cc2oc3cc(=[N+](CC)CC)c(C)cc-3c(-c3ccc(S(=O)(=O)O)cc3S(=O)(=O)[O-])c2cc1C`: “inactive”; for `Cc1ccccc1N=O`: “active”; for `Cc1cc(O)cc(C)c1N(C)C`: “inactive; active”.
As to `CC1CN(N=O)C(=O)O1` (stereo not given), the result was active.
The same measure for `Nc1c(Cl)cc(Cl)cc1Cl`: “active”.
The same measure for `CC(CCl)OC(C)CCl` (stereo not given): “active”.
`COC(=O)[C@H]1[C@H]2C[C@@H]3c4[nH]c5cc(OC)ccc5c4CCN3C[C@H]2C[C@@H](OC(=O)c2cc(OC)c(OC)c(OC)c2)[C@@H]1OC`: the result was active.
Turning to `O=C1O[C@H]([C@@H](O)CO)C(O)=C1O`, the outcome was inactive.
Then `Cc1c(N)cccc1N`, with “inactive”.
In the case of `CCCc1ccc2c(c1)OCO2`, the outcome was “active; inactive”.
With `Brc1cc(Br)c(-c2c(Br)c(Br)c(Br)c(Br)c2Br)c(Br)c1Br`, the outcome is “active; inactive”.
`C#C[C@]1(OC(C)=O)CC[C@H]2[C@@H]3CCC4=CC(=O)CC[C@@H]4[C@H]3CC[C@@]21C`: the outcome was active.
For `Nc1ccccc1N`, the outcome was “active; inactive”.
The same measure for `O=C(O)c1[nH]n(-c2ccc(S(=O)(=O)O)cc2)c(=O)c1N=Nc1ccc(S(=O)(=O)O)cc1`: “inactive”; for `CC1=C(/C=C/C(C)=C/C=C/C(C)=C/C=C/C=C(C)/C=C/C=C(C)/C=C/C2=C(C)CCCC2(C)C)C(C)(C)CCC1`: “inactive”.
For `O=[N+]([O-])c1ccc(Oc2ccc(Cl)cc2Cl)cc1`, the outcome was active.
Then `Nc1ccc(Sc2ccc(N)cc2)cc1`, with “active”; and `NC(=O)NNc1ccccc1`, with “active; inactive”.
Consider `[K+]`, for which the outcome was “active; inactive”.
The same measure for `Nc1cc(Cl)c(N)c(Cl)c1`: “active; inactive”; for `CC(=O)OC[C@H]1O[C@H](O[C@]2(COC(C)=O)O[C@H](COC(=O)C(C)C)[C@@H](OC(=O)C(C)C)[C@@H]2OC(=O)C(C)C)[C@H](OC(=O)C(C)C)[C@@H](OC(=O)C(C)C)[C@@H]1OC(=O)C(C)C`: “inactive”.
Turning to `C=CCN(CC(C)O)N=O` (stereo not given), the result was active.
Then `CCc1nc(N)nc(N)c1-c1ccc(Cl)cc1`, with “inactive”.
The same measure for `Nc1ccc(Oc2ccc(Cl)cc2)cc1`: “active”.
Then `NC(=S)C(N)=S`, with “inactive”; and `CN=[N+](C)[O-]`, with “active”; and `N`, with “inactive”.
For the compound `NC(=O)N(CCO)N=O`, the outcome is “active; inactive”.
The same measure for `[N-]=[N+]=O`: “inactive”.
The same measure for `CCCCCCCCCc1ccc(OCCOCCO)cc1`: “inactive; active”.
For the compound `CC#N`, the outcome was inactive.
For `O=S(=O)(O)CCS`, the outcome was “inactive; active”.
Take `COP(=O)(OC)O/C(=C\Cl)c1cc(Cl)c(Cl)cc1Cl`: the outcome is “active; inactive”.
As to `CC(=O)CN(CCO)N=O`, the outcome was active.
Then `C=C1C(C)(C)[C@@]2(Cl)C(Cl)[C@]1(Cl)C(Cl)(Cl)C2(Cl)Cl` (stereo not given in full), with “active”; and `Nc1ccc(-c2ccccc2)cc1O`, with “inactive”; and `CCCCCCCCCCCCN=C(N)N`, with “inactive”.
For the compound `N=C1C=CC(=C(c2ccc(N)cc2)c2ccc(N)cc2)C=C1`, the result was active.
The same measure for `Cc1ccc(N=Nc2c(O)ccc3ccccc23)c([N+](=O)[O-])c1`: “active”.
As for `CCCNC(=O)NS(=O)(=O)c1ccc(Cl)cc1`, the result was inactive.
`CC(=O)Nc1ccc(S(=O)(=O)c2ccc(NC(C)=O)cc2)cc1`: the outcome was “active; inactive”.
On to `O=P(OCC(Br)CBr)(OCC(Br)CBr)OCC(Br)CBr` (stereo not given), for which the result was active.
Regarding `C=C(C)C#N`, the result was inactive.
On to `CCCN=[N+]([O-])CCC`, for which the result was active.
Turning to `ClCC(Br)CBr` (stereo not given), the outcome was active.
As for `CC1CN(N=O)CC(C)N1C` (stereo not given), the outcome was active.
Then `CNCCC(Oc1ccc(C(F)(F)F)cc1)c1ccccc1` (stereo not given), with “inactive; active”.
Then `O=[N+]([O-])c1ccc(Cl)cc1`, with “active”; and `O=C1CCc2ccccc2O1`, with “active; inactive”.
Consider `CCCOC(=O)C1c2cc3c(cc2CC(C)C1C(=O)OCCC)OCO3` (stereo not given), for which the result was inactive.
As to `CCOC(=O)C(C)(C)Oc1ccc(Cl)cc1`, the result was active.
Turning to `CN(C)c1ccccc1`, the result was active.
Then `Nc1cc([N+](=O)[O-])ccc1O`, with “active”; and `C[C@@H]1CCCCN1N=O`, with “active”; and `Nc1ccccc1C(=O)OC/C=C/c1ccccc1`, with “active”.
The same measure for `Oc1cccc2cccnc12.Oc1cccc2cccnc12.[Cu]`: “inactive”; for `CC(O)CN(CC(O)CO)N=O` (stereo not given): “active”; for `NN`: “active”.
Regarding `NNc1nc(-c2ccccc2)cs1`, the outcome was inactive.
The same measure for `ClC(Cl)=C(Cl)c1c(Cl)c(Cl)c(Cl)c(Cl)c1Cl`: “inactive”; for `CC/C=C(/CC)[N+](=O)[O-]`: “active”.
Take `C[C@H](CCC(=O)O)[C@H]1CC[C@H]2[C@@H]3[C@H](O)C[C@@H]4C[C@H](O)CC[C@]4(C)[C@H]3CC[C@]12C`: the result was inactive.
With `NNC=O`, the outcome was active.
Then `CCn1cc(C(=O)O)c(=O)c2cc3c(cc21)OCO3`, with “active”; and `CN(N=O)c1ccc([N+](=O)[O-])cc1`, with “inactive”; and `F`, with “inactive”.
For the compound `COc1ccc2c3c1O[C@H]1[C@@H](O)C=C[C@H]4[C@@H](C2)N(C)CC[C@@]341`, the result was inactive.
As to `CC[C@H]1OC(=O)[C@H](C)[C@@H](O[C@H]2C[C@@](C)(OC)[C@@H](O)[C@H](C)O2)[C@H](C)[C@@H](O[C@@H]2O[C@H](C)C[C@H](N(C)C)[C@H]2O)[C@](C)(O)C[C@@H](C)C(=O)[C@H](C)[C@@H](O)[C@]1(C)O`, the outcome is “inactive; active”.
`CN(N=O)C(=O)Nc1nc2ccccc2s1`: the result was active.
The same measure for `ClC1(Cl)C2(Cl)C3(Cl)C4(Cl)C(Cl)(Cl)C5(Cl)C3(Cl)C1(Cl)C5(Cl)C24Cl` (stereo not given): “active; inactive”; for `CN1[C@@H]2CC(OC(=O)[C@@H](CO)c3ccccc3)C[C@H]1[C@@H]1O[C@@H]12` (stereo not given in full): “inactive”.
Regarding `COc1ccc(C(=O)Nc2c(Cl)cncc2Cl)cc1OC1CCCC1`, the outcome was active.
Consider `CCO`, for which the outcome was active.
For the compound `COc1cc(CNC(=O)CCCC/C=C/C(C)C)ccc1O`, the outcome was active.
`Oc1c(Cl)cc(Cl)cc1Sc1cc(Cl)cc(Cl)c1O`: the result was inactive.
In the case of `Nc1ccc(O)c(N)c1`, the result was active.
Then `C[C@]12C=CC(=O)C=C1CC[C@@H]1[C@@H]2[C@@H](O)C[C@@]2(C)[C@H]1CC[C@]2(O)C(=O)CO`, with “active”; and `CNc1ncnc2c1ncn2[C@@H]1O[C@H](CO)[C@@H](O)[C@H]1O`, with “inactive; active”.
As to `O=NN1CCOC(O)C1` (stereo not given), the outcome was “inactive; active”.
Then `CC(O)CN(CC(C)O)N=O` (stereo not given), with “active”; and `O=NN1CCCCCCCCCCCC1`, with “active”; and `CN(C)CCC(c1ccc(Cl)cc1)c1ccccn1` (stereo not given), with “inactive”.
Regarding `NCC1(CC(=O)O)CCCCC1`, the result was active.
Regarding `COc1cc(/C=C/C(=O)CC(=O)/C=C/c2ccc(O)c(OC)c2)ccc1O`, the outcome was inactive.
Then `C/C=C/C(=O)Oc1c(C(C)CCCCCC)cc([N+](=O)[O-])cc1[N+](=O)[O-]` (stereo not given), with “inactive”; and `O=NN1CCCCO1`, with “active”; and `COc1ccc(C(c2ccc(OC)cc2)C(Cl)(Cl)Cl)cc1`, with “inactive; active”.
The same measure for `Cc1ccc(O)c(O)c1`: “active; inactive”; for `Cc1ccc([N+](=O)[O-])cc1N`: “active”; for `FC(Cl)(Cl)Cl`: “inactive; active”.
In the case of `Nc1ccc(N=Nc2ccccc2)c(N)n1`, the result was active.
